# Assays:
# [1] = biological target: T1, human vasopressin V2 receptor subtype (Homo sapiens, UniProt P30518); assay: Vasopressin binding in CHO cell membranes expressing human vasopressin V2 subtype receptors ([3H]arginine vasopressin radioligand binding); details: for IC50: value in parentheses; for inhibition at 0.1 µM: 100 nM
# T1 construct: host or cells: CHO cells, stably transfected (pZeoSV vector)
# In short: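 Membranes from CHO cells stably expressing human V2 receptor (25 to 50 μg protein/well) incubated 60 min at room temperature with [3H]arginine vasopressin in Tris-HCl pH 7.4 buffer with MgCl2, BSA and protease inhibitors. Filtration, scintillation counting; percent inhibition at one concentration or IC50 (nM).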
# T1 sequence (P30518 whole entry): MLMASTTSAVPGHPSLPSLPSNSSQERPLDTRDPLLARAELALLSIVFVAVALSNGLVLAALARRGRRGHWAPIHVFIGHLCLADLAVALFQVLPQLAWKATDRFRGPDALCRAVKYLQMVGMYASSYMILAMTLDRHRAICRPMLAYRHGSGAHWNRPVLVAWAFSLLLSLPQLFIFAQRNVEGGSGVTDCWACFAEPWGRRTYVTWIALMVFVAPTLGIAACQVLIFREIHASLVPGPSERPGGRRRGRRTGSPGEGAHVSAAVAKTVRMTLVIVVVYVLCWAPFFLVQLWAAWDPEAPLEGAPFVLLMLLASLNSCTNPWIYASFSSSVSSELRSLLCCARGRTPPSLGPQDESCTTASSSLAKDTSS
Compound,IC50 [1],melting point,inhibition at 0.1 µM [1]
"COc1cc(-c2ccccc2C(F)(F)F)c(Cl)cc1C(=O)N1Cc2ccc(C(=O)N(C)Cc3cccnc3)n2Cc2ccccc21 [Example 5, 10-{[6-Chloro-3-methoxy-2′-trifluoromethyl-[1,1′-biphenyl]-4-yl]carbonyl}-N-methyl-N-(pyridin-3-ylmethyl)-10,11-dihydro-5H-pyrrolo[2,1-c][1,4]benzodiazepine-3-carboxamide]",433 nM,124 to 126 °C,
"COc1cc(C(=O)N2Cc3ccc(C(=O)N(C)Cc4ccc[n+]([O-])c4)n3Cc3ccccc32)ccc1-c1ccccc1C(F)(F)F [Example 8, 10-{[2-Methoxy-2′-trifluoromethyl-[1,1′-biphenyl]-4-yl]carbonyl}-N-methyl-N-(1-oxo-pyridin-3-ylmethyl)-10,11-dihydro-5H-pyrrolo[2,1-c][1,4]benzodiazepine-3-carboxamide]",237 nM,165 to 170 °C (dec.),
"COc1cc(-c2ccccc2Cl)c(Cl)cc1C(=O)N1Cc2ccc(C(=O)N(C)Cc3cccnc3)n2Cc2ccccc21 [Example 6, 10-[(2′,6-Dichloro-3-methoxy-[1,1′-biphenyl]-4-yl)carbonyl]-N-methyl-N-(pyridin-3-ylmethyl)-10,11-dihydro-5H-pyrrolo[2,1-c][1,4]benzodiazepine-3-carboxamide]",309 nM,196 to 198 °C,
"Cc1cc(C(=O)N2Cc3ccc(C(=O)N4CCN(c5ccccn5)CC4)n3Cc3ccccc32)ccc1-c1ccccc1C(F)(F)F [Example 87, (10-{[2-Methyl-2′-trifluoromethyl-[1,1′-biphenyl]-4-yl]carbonyl}-10,11-dihydro-5H-pyrrolo[2,1-c][1,4]benzodiazepin-3-yl)[4-(2-pyridinyl)-1-piperazinyl]methanone]",,,4%
"COc1cccc(-c2ccc(C(=O)N3Cc4ccc(C(=O)N(C)Cc5cccnc5)n4Cc4ccccc43)cc2C)c1 [Example 102, 10-[(3′-Methoxy-2-methyl-[1,1′-biphenyl]4-yl)carbonyl]-N-methyl-N-(3-pyridinyImethyl)-10,11-dihydro-5H-pyrrolo[2,1-c][1,4]benzodiazepine-3-carboxamide]",534 nM,,
"Cc1cc(C(=O)N2Cc3ccc(C(=O)N(C)Cc4ccc[n+]([O-])c4)n3Cc3ccccc32)ccc1-c1ccccc1C(F)(F)F [Example 4, N-Methyl-10-{[2-methyl-2′-trifluoromethyl-[1,1′-biphenyl]-4-yl]carbonyl}-N-[(1-oxidopyridin-3-yl)methyl]-10,11-dihydro-5H-pyrrolo[2,1-c][1,4]benzodiazepine-3-carboxamide]",464 nM,,
"COc1cccc(-c2ccc(C(=O)N3Cc4ccc(C(=O)NCc5ccncc5)n4Cc4ccccc43)cc2C)c1 [Example 90, 10-[(3′-Methoxy-2-methyl-[1,1′-biphenyl]-4-yl)carbonyl]-N-(4-pyridinylmethyl)-10,11-dihydro-5H-pyrrolo[2,1-c][1,4]benzodiazepine-3-carboxamide]",,,11%
"O=C(c1ccc2n1Cc1ccccc1N(C(=O)c1ccc(-c3cccc4ccccc34)cc1Cl)C2)N1CCN(c2ccccn2)CC1 [Example 86, {10-[2-Chloro-4-(naphthalen-1-yl)benzoyl]-10,11-dihydro-5H-pyrrolo[2,1-c][1,4]benzodiazepin-3-yl}[4-(2-pyridinyl)-1-piperazinyl]methanone]",,,11%
"COc1cccc(-c2cc(OC)c(C(=O)N3Cc4ccc(C(=O)NCc5ccncc5)n4Cc4ccccc43)cc2Cl)c1 [Example 95, 10-[(6-Chloro-3,3′-dimethoxy-[1,1′-biphenyl]-4-yl)carbonyl]-N-(4-pyridinylmethyl)-10,11-dihydro-5H-pyrrolo[2,1-c][1,4]benzodiazepine-3-carboxamide]",,,-1%
"COc1ccccc1-c1ccc(C(=O)N2Cc3ccc(C(=O)N(C)CCc4ccccn4)n3Cc3ccccc32)cc1C [Example 65, 10-[(2′-Methoxy-2-methyl-[1,1′-biphenyl]-4-yl)carbonyl]-N-methyl-N-[2-(2-pyridinyl)ethyl]-10,11-dihydro-5H-pyrrolo[2,1-c][1,4]benzodiazepine-3-carboxamide]",,,16%
"COc1ccccc1-c1ccc(C(=O)N2Cc3ccc(C(=O)N(C)CCc4ccccn4)n3Cc3ccccc32)cc1 [Example 67, 10-[(2′-Methoxy-[1,1′-biphenyl]-4-yl)carbonyl]-N-methyl-N-[2-(2-pyridinyl)ethyl]-10,11-dihydro-5H-pyrrolo[2,1-c][1,4]benzodiazepine-3-carboxamide]",,,24%
"COc1cccc(-c2ccc(C(=O)N3Cc4ccc(C(=O)N(C)CCc5ccccn5)n4Cc4ccccc43)cc2OC)c1 [Example 72, 10-[(2,3′-Dimethoxy-[1,1′-biphenyl]-4-yl)carbonyl]-N-methyl-N-[2-(2-pyridinyl)ethyl]-10,11-dihydro-5H-pyrrolo[2,1-c][1,4]benzodiazepine-3-carboxamide]",,,11%
"COc1ccccc1-c1ccc(C(=O)N2Cc3ccc(C(=O)N4CCN(c5ccccn5)CC4)n3Cc3ccccc32)cc1OC [Example 84, {10-[(2,2′-Dimethoxy-[1,1′-biphenyl]-4-yl)carbonyl]-10,11-dihydro-5H-pyrrolo[2,1-c][1,4]benzodiazepin-3-yl}[4-(2-pyridinyl)-1-piperazinyl]methanone]",,,14%
"COc1cc(-c2ccccc2C)c(Cl)cc1C(=O)N1Cc2ccc(C(=O)N(C)CCc3ccccn3)n2Cc2ccccc21 [Example 63, 10-[(6-Chloro-3-methoxy-2′-methyl-[1,1′-biphenyl]-4-yl)carbonyl]-N-methyl-N-[2-(2-pyridinyl)ethyl]-10,11-dihydro-5H-pyrrolo[2,1-c][1,4]benzodiazepine-3-carboxamide]",714 nM,,

# Results, then the compound that gave them:
IC50 [1],melting point,inhibition at 0.1 µM [1],Compound
,,0%,"Cc1ccccc1-c1ccc(C(=O)N2Cc3ccc(C(=O)NCc4ccncc4)n3Cc3ccccc32)cc1 [Example 92, 10-[(2′-Methyl-[1,1′-biphenyl]-4-yl)carbonyl]-N-(4-pyridinylmethyl)-10,11-dihydro-5H-pyrrolo[2,1-c][1,4]benzodiazepine-3-carboxamide]"
1420 nM,,,"Cc1cc(C(=O)N2Cc3ccc(C(=O)N4CCN(Cc5ccc[n+]([O-])c5)CC4)n3Cc3ccccc32)ccc1-c1ccccc1C(F)(F)F [Example 2, 10-{[2-Methyl-2′-trifluoromethyl-[1,1′-biphenyl]-4-yl]carbonyl}-3-({4-[(1-oxidopyridin-3-yl)methyl]piperazin-1-yl}carbonyl)-10,11-dihydro-5H-pyrrolo[2,1-c][1,4]benzodiazepine]"
,,27%,"COc1cc(C(=O)N2Cc3ccc(C(=O)NCc4ccncc4)n3Cc3ccccc32)ccc1-c1ccccc1C [Example 93, 10-[(2-Methoxy-2′-methyl-[1,1′-biphenyl]-4-yl)carbonyl]-N-(4-pyridinylmethyl)-10,11-dihydro-5H-pyrrolo[2,1-c][1,4]benzodiazepine-3-carboxamide]"
,,10%,"COc1ccccc1-c1ccc(C(=O)N2Cc3ccc(C(=O)NCc4ccncc4)n3Cc3ccccc32)cc1 [Example 91, 10-[(2′-Methoxy-[1,1′-biphenyl]-4-yl)carbonyl]-N-(4-pyridinylmethyl)-10,11-dihydro-5H-pyrrolo[2,1-c][1,4]benzodiazepine-3-carboxamide]"
,,12%,"O=C(NCc1ccncc1)c1ccc2n1Cc1ccccc1N(C(=O)c1ccc(-c3cccc4ccccc34)cc1Cl)C2 [Example 99, 10-[2-Chloro-4-(naphthalen-1-yl)benzoyl]-N-(4-pyridinylmethyl)-10,11-dihydro-5H-pyrrolo[2,1-c][1,4]benzodiazepine-3-carboxamide]"
545 nM,,,"COc1ccccc1-c1ccc(C(=O)N2Cc3ccc(C(=O)N4CCN(c5ccncc5)CC4)n3Cc3ccccc32)cc1C [Example 113, {10-[(2′-Methoxy-2-methyl-[1,1′-biphenyl]-4-yl)carbonyl]-10,11-dihydro-5H-pyrrolo[2,1-c][1,4]benzodiazepin-3-yl}[4-(4-pyridinyl)-1-piperazinyl]methanone]"
,,1%,"Cc1cc(C(=O)N2Cc3ccc(C(=O)N(C)CCc4ccccn4)n3Cc3ccccc32)ccc1-c1ccccc1C(F)(F)F [Example 74, N-Methyl-10-{[2-methyl-2′-trifluoromethyl-[1,1′-biphenyl]-4-yl]carbonyl}-N-[2-(2-pyridinyl)ethyl]-10,11-dihydro-5H-pyrrolo[2,1-c][1,4]benzodiazepine-3-carboxamide]"
,,8%,"COc1cccc(-c2cc(OC)c(C(=O)N3Cc4ccc(C(=O)N5CCN(c6ccccn6)CC5)n4Cc4ccccc43)cc2Cl)c1 [Example 82, {10-[(6-Chloro-3,3′-dimethoxy-[1,1′-biphenyl]-4-yl)carbonyl]-10,11-dihydro-5H-pyrrolo[2,1-c][1,4]benzodiazepin-3-yl}[4-(2-pyridinyl)-1-piperazinyl]methanone]"
,,15%,"Cc1ccccc1-c1ccc(C(=O)N2Cc3ccc(C(=O)NCc4ccncc4)n3Cc3ccccc32)cc1C [Example 89, 10-[(2,2′-Dimethyl-[1,1′-biphenyl]-4-yl)carbonyl]-N-(4-pyridinylmethyl)-10,11-dihydro-5H-pyrrolo[2,1-c][1,4]benzodiazepine-3-carboxamide]"
,,5%,"COc1cccc(-c2ccc(C(=O)N3Cc4ccc(C(=O)N5CCN(c6ccccn6)CC5)n4Cc4ccccc43)cc2OC)c1 [Example 85, {10-[(2,3′-Dimethoxy-[1,1′-biphenyl]-4-yl)carbonyl]-10,11-dihydro-5H-pyrrolo[2,1-c][1,4]benzodiazepin-3-yl}[4-(2-pyridinyl)-1-piperazinyl]methanone]"
,,16%,"COc1ccccc1-c1ccc(C(=O)N2Cc3ccc(C(=O)NCc4ccncc4)n3Cc3ccccc32)cc1OC [Example 97, 10-[(2,2′-Dimethoxy-[1,1′-biphenyl]-4-yl)carbonyl]-N-(4-pyridinylmethyl)-10,11-dihydro-5H-pyrrolo[2,1-c][1,4]benzodiazepine-3-carboxamide]"

# — US7064120B2, “Tricyclic pyridyl carboxamides and derivatives thereof tocolytic oxytocin receptor antagonists” (Wyeth, priority 2001, dated 2006)
